One assay relates to Mycobacterium tuberculosis. The assay can be described thus: Antimycobacterial activity against Mycobacterium tuberculosis H37Rv ATCC 27294 assessed as growth inhibition at 6.25 ug/mL after 4 days by microplate alamar blue assay. The class given is functional. The conditions noted are these: H37Rv ATCC 27294, 96 h, read-out: GI. A general note: The colour change of resazurin is a common sign of viable cells or microbes.
For `CN(C)NC(=S)Nc1cccc(-c2nnc(S)o2)c1`, the inhibition of growth at 6.25 µg/mL was 5%.
The same measure, in the same setting: the same measure for `C=CCSc1nnc(-c2ccc(N=C=S)cc2)o1`: 56%; for `O=C(CSc1nnc(-c2cccc(N=C=S)c2)o1)c1ccc(Br)cc1`: 0%.
On to `CSc1nnc(-c2cccc(NC(=S)N3CCOCC3)c2)o1`, for which the inhibition of growth at 6.25 µg/mL stood at 0%.
Still for that read-out and setting: then `CSc1nnc(-c2ccc(NC(N)=S)cc2)o1`, with 78%; and `CN(C)C(=S)Nc1cccc(-c2nnc(SCC(=O)c3ccccc3)o2)c1`, with 9%; and `CSc1nnc(-c2cccc(NC(=S)NCCO)c2)o1`, with 8%.
With `CCNC(=S)Nc1ccc(-c2nnc(S)o2)cc1`, the inhibition of growth at 6.25 µg/mL turned out to be 0%.
Regarding `CN(C)C(=S)Nc1cccc(-c2nnc(SCC(=O)c3ccc(Cl)cc3Cl)o2)c1`, the inhibition of growth at 6.25 µg/mL is 1%.
Same read-out and setting: the same measure for `CSc1nnc(-c2ccc(NC(=S)NCCO)cc2)o1`: 67%; for `NC(=S)Nc1cccc(-c2nnc(SCCc3ccccc3)o2)c1`: 16%.
Still for that read-out and setting: the same measure for `O=C(CSc1nnc(-c2cccc(NC(=S)NCCO)c2)o1)c1ccc(Cl)cc1Cl`: 0%; for `NC(S)=Nc1cccc(-c2nnc(S)o2)c1`: 13%.
For the compound `NC(=S)Nc1cccc(-c2nnc(SCc3ccccc3)o2)c1`, the inhibition of growth at 6.25 µg/mL was found to be 0%.
The same measure, in the same setting: the same measure for `S=C(Nc1cccc(-c2nnc(S)o2)c1)N1CCCCC1`: 13%.
Consider `O=C(CSc1nnc(-c2ccc(NC(=S)NCCO)cc2)o1)c1ccc(F)cc1`, for which the inhibition of growth at 6.25 µg/mL is 90%.
Still for that read-out and setting: then `Cc1ccc(C(=O)CSc2nnc(-c3cccc(NC(=S)N(C)C)c3)o2)cc1`, with 10%; and `OCCNC(=S)Nc1ccc(-c2nnc(Sc3ncccn3)o2)cc1`, with 14%; and `O=C(CSc1nnc(-c2cccc(N=C=S)c2)o1)c1ccc2ccccc2c1`, with 0%.
As for `NC(=S)Nc1cccc(-c2nnc(SCC(=O)c3ccc(F)cc3)o2)c1`, the inhibition of growth at 6.25 µg/mL is 19%.
On the same count and under the same terms, then `CC(C)=NNC(=S)Nc1cccc(-c2nnc(S)o2)c1`, with 16%; and `NC(=S)Nc1ccc(-c2nnc(S)o2)cc1`, with 70%.
As for `O=C(CSc1nnc(-c2ccc(N=C=S)cc2)o1)c1ccccc1`, the inhibition of growth at 6.25 µg/mL came out at 22%.
On the same count and under the same terms, the same measure for `CSc1nnc(-c2cccc(NC(N)=S)c2)o1`: 25%; for `CNC(=S)Nc1ccc(-c2nnc(S)o2)cc1`: 0%; for `S=C=Nc1cccc(-c2nnc(S)o2)c1`: 9%.
In the case of `CN(C)C(=S)Nc1cccc(-c2nnc(SCC(=O)c3ccc4ccccc4c3)o2)c1`, the inhibition of growth at 6.25 µg/mL was found to be 0%.
On the same count and under the same terms, the same measure for `CSc1nnc(-c2ccc(NC(=S)Nc3ccc(C)cc3)cc2)o1`: 17%; for `O=C(CSc1nnc(-c2cccc(NC(=S)NCCO)c2)o1)c1ccc(Br)cc1`: 17%; for `CSc1nnc(-c2cccc(NC(S)=NN)c2)o1`: 0%.
With `OCCNC(=S)Nc1ccc(-c2nnc(SCc3ccncc3)o2)cc1`, the inhibition of growth at 6.25 µg/mL amounted to 25%.
As for `O=C(CSc1nnc(-c2ccc(N=C=S)cc2)o1)c1ccc(Cl)cc1Cl`, the inhibition of growth at 6.25 µg/mL is 2%.
As for `OCCNC(=S)Nc1ccc(-c2nnc(S)o2)cc1`, the inhibition of growth at 6.25 µg/mL worked out at 9%.
On the same count and under the same terms, the same measure for `NNC(=S)Nc1ccc(-c2nnc(S)o2)cc1` [STEMAZOLE]: 0%; for `NC(=S)Nc1ccc(-c2nnc(SCC(=O)c3ccccc3)o2)cc1`: 61%; for `NC(=S)Nc1cccc(-c2nnc(SCC(=O)c3ccc4ccccc4c3)o2)c1`: 16%.
Same read-out and setting: the same measure for `NC(=S)Nc1cccc(-c2nnc(SCC(=O)c3ccc(Br)cc3)o2)c1`: 6%.
As for `O=C(CSc1nnc(-c2cccc(NC(=S)NCCO)c2)o1)c1ccc2ccccc2c1`, the inhibition of growth at 6.25 µg/mL was 0%.
On the same count and under the same terms, then `S=C=Nc1ccc(-c2nnc(S)o2)cc1`, with 2%.
Still for that read-out and setting: then `CN(C)C(=S)Nc1cccc(-c2nnc(SCC(=O)c3ccc(Cl)cc3)o2)c1`, with 18%.
Same read-out and setting: the same measure for `O=C(CSc1nnc(-c2cccc(N=C=S)c2)o1)c1ccc(F)cc1`: 5%.
With `C=CCNC(=S)Nc1ccc(-c2nnc(S)o2)cc1`, the inhibition of growth at 6.25 µg/mL is 6%.
In the case of `S=C(Nc1cccc(-c2nnc(S)o2)c1)Nn1cnnc1`, the inhibition of growth at 6.25 µg/mL was determined as 13%.
The same measure, in the same setting: the same measure for `Cc1ccc(NC(S)=Nc2cccc(-c3nnc(S)o3)c2)cc1`: 18%; for `NC(=S)Nc1cccc(-c2nnc(SCC(=O)c3ccc(Cl)cc3Cl)o2)c1`: 0%; for `O=C(CSc1nnc(-c2ccc(N=C=S)cc2)o1)c1ccc(F)cc1`: 12%.
On to `CSc1nnc(-c2ccc(NC(=S)Nn3cnnc3)cc2)o1`, for which the inhibition of growth at 6.25 µg/mL came to 58%.
On to `OCCNC(=S)Nc1cccc(-c2nnc(SCCc3ccccc3)o2)c1`, for which the inhibition of growth at 6.25 µg/mL was found to be 13%.
On to `NC(=S)Nc1cccc(-c2nnc(SCC(=O)c3ccc(Cl)cc3)o2)c1`, for which the inhibition of growth at 6.25 µg/mL was 0%.
For `NC(=S)Nc1cccc(-c2nnc(SCC(=O)c3ccccc3)o2)c1`, the inhibition of growth at 6.25 µg/mL was found to be 0%.
With `CSc1nnc(-c2cccc(NC(=S)NN(C)C)c2)o1`, the inhibition of growth at 6.25 µg/mL was 8%.
On to `CSc1nnc(-c2cccc(NC(=S)Nc3ccc(C)cc3)c2)o1`, for which the inhibition of growth at 6.25 µg/mL is 21%.
Same read-out and setting: then `S=C=Nc1cccc(-c2cnc(SCCc3ccccc3)o2)c1`, with 0%; and `C/C(=N/NC(=S)Nc1cccc(-c2nnc(S)o2)c1)c1ccccc1`, with 20%; and `CSc1nnc(-c2ccc(NC(=S)N3CCOCC3)cc2)o1`, with 0%.
With `CN(C)NC(=S)Nc1ccc(-c2nnc(S)o2)cc1`, the inhibition of growth at 6.25 µg/mL stood at 9%.
On to `S=C=Nc1ccc(-c2nnc(SCc3ccncc3)o2)cc1`, for which the inhibition of growth at 6.25 µg/mL stood at 27%.
Still for that read-out and setting: then `S=C(Nc1ccc(-c2nnc(S)o2)cc1)N1CCCCC1`, with 28%.
In the case of `S=C=Nc1ccc(-c2nnc(Sc3ncccn3)o2)cc1`, the inhibition of growth at 6.25 µg/mL stood at 14%.
Still for that read-out and setting: then `C=CCNC(=S)Nc1cccc(-c2nnc(S)o2)c1`, with 0%; and `S=C=Nc1ccc(-c2nnc(SCc3ccccc3)o2)cc1`, with 20%; and `O=C(CSc1nnc(-c2cccc(NC(=S)NCCO)c2)o1)c1ccc(F)cc1`, with 0%.
On the same count and under the same terms, then `O=C(CSc1nnc(-c2cccc(N=C=S)c2)o1)c1ccc(Cl)cc1`, with 0%.
On the same count and under the same terms, then `O=C(CSc1nnc(-c2cccc(N=C=S)c2)o1)c1ccc(Cl)cc1Cl`, with 0%; and `S=C=Nc1cccc(-c2nnc(SCc3ccccc3)o2)c1`, with 0%.
Turning to `Cc1ccc(NC(=S)Nc2ccc(-c3nnc(S)o3)cc2)cc1`, the inhibition of growth at 6.25 µg/mL came to 5%.
Same read-out and setting: then `CSc1nnc(-c2ccc(N=C=S)cc2)o1`, with 37%.
Same read-out and setting: the same measure for `O=C(CSc1nnc(-c2cccc(NC(=S)NCCO)c2)o1)c1ccccc1`: 12%; for `C=CCSc1nnc(-c2cccc(N=C=S)c2)o1`: 3%; for `NN=C(S)Nc1cccc(-c2nnc(S)o2)c1`: 0%.
`NC(=S)Nc1ccc(-c2nnc(Sc3ncccn3)o2)cc1`: the inhibition of growth at 6.25 µg/mL worked out at 87%.
As for `CSc1nnc(-c2cccc(NC(=S)Nn3cnnc3)c2)o1`, the inhibition of growth at 6.25 µg/mL was 58%.
On the same count and under the same terms, then `CSc1nnc(-c2ccc(NC(=S)NN)cc2)o1`, with 0%.
Still for that read-out and setting: the same measure for `CNC(=S)Nc1cccc(-c2nnc(SCC(=O)c3ccc4ccccc4c3)o2)c1`: 0%.

In the next assay the test system is Mycobacterium tuberculosis. The assay can be described thus: Antimycobacterial activity against Mycobacterium tuberculosis H37Rv ATCC 27294 assessed as growth inhibition at 12.5 ug/mL after 4 days by microplate alamar blue assay. The class given is functional. The conditions noted are these: H37Rv ATCC 27294, 96 h, read-out: GI.
For the compound `NC(=S)Nc1ccc(-c2nnc(SCc3ccncc3)o2)cc1`, the inhibition of growth at 12.5 µg/mL is 97%.
Same read-out and setting: then `O=C(CSc1nnc(-c2ccc(NC(=S)NCCO)cc2)o1)c1ccc(Cl)cc1Cl`, with 98%.
Regarding `NC(=S)Nc1ccc(-c2nnc(SCc3ccccc3)o2)cc1`, the inhibition of growth at 12.5 µg/mL was 91%.
Consider `OCCNC(=S)Nc1ccc(-c2nnc(SCc3ccccc3)o2)cc1`, for which the inhibition of growth at 12.5 µg/mL amounted to 97%.
On the same count and under the same terms, then `NC(=S)Nc1ccc(-c2nnc(SCC(=O)c3ccc(Cl)cc3Cl)o2)cc1`, with 93%; and `O=C(CSc1nnc(-c2ccc(NC(=S)NCCO)cc2)o1)c1ccccc1`, with 96%; and `C=CCSc1nnc(-c2ccc(NC(=S)NCCO)cc2)o1`, with 96%.
Take `C=CCSc1nnc(-c2ccc(NC(N)=S)cc2)o1`: the inhibition of growth at 12.5 µg/mL is 98%.
